Type in all cases: functional
The subject of assay [1] is Staphylococcus aureus. The assay can be described thus: Antibiofilm activity against pre-established 36 hrs old bacterial biofilms of Staphylococcus aureus NCTC 8530 assessed as reduction in number of viable bacterial cells incubated for 4 hrs by XTT assay. (Tetrazolium dyes change colour on reduction, which living cells bring about.)
The test system of assay [2] is Escherichia coli. Put plainly: Bactericidal activity against Escherichia coli MG1655 planktonic forms.
Assay [3] has as its system Staphylococcus aureus. The assay can be described thus: Bactericidal activity against Staphylococcus aureus NCTC 8530 planktonic forms.
The subject of assay [4] is Staphylococcus aureus. Put plainly: Antibiofilm activity against pre-established 36 hrs old bacterial biofilms of Staphylococcus aureus NCTC 8530 incubated for 4 hrs by XTT assay.
Assay [5] deals with Escherichia coli. The assay can be described thus: Antibiofilm activity against pre-established 36 hrs old bacterial biofilms of Escherichia coli MG1655 incubated for 4 hrs Antibiofilm activity against pre-established 36 hrs old bacterial biofilms of Escherichia coli MG1655 incubated for 4 hrs by LIVE/DEAD BacLight staining based confocal microscopy.
Assay [6] deals with Staphylococcus aureus. Put plainly: Antibiofilm activity against pre-established 36 hrs old bacterial biofilms of Staphylococcus aureus NCTC 8530 incubated for 4 hrs by […] LIVE/DEAD BacLight staining based confocal microscopy.
For assay [7], the system named is Escherichia coli. Put plainly: Antibiofilm activity against pre-established 36 hrs old bacterial biofilms of Escherichia coli MG1655 incubated for 4 hrs by XTT assay.

≈ marks a conversion by molar mass, not a printed value. Calls of active or inactive are those of the source. Positions of bridges follow the written chain, without caps; N, C: chain ends. Non-standard residues stand in square brackets, D forms with d. Residues, ends and D or L forms follow the SMILES beside them.

MBEC, MBC and Activity data for 3 molecules are collected here from ChEMBL document CHEMBL4052697, “Chimeric analogs of human β-defensin 1 and θ-defensin disrupt pre-established bacterial biofilms” (2017).

Take `CC[C@@H](C)[C@H]1NC(=O)[C@H](CCCCN)NC(=O)[C@H]([C@@H](C)O)NC(=O)[C@H](Cc2ccccc2)NC(=O)[C@@H]([C@H](C)CC)NC(=O)[C@@H]2CCCN2C(=O)[C@@H](NC(=O)[C@H](C)N)CSSC[C@@H](C(=O)N[C@@H](CCCNC(=N)N)C(=O)O)NC(=O)[C@H](CCCCN)NC(=O)[C@H](C)NC(=O)[C@@H](CCCNC(=N)N)NC(=O)CNC(=O)[C@@H](CCCNC(=N)N)NC(=O)[C@H](Cc2ccc(O)cc2)NC(=O)[C@H]([C@@H](C)O)NC(=O)CNC(=O)[C@H](CCC(N)=O)NC1=O` (H-ACP[dI]FTK[dI]QGTY[dR]G[dR]AKCR-OH; disulfide 2-18): in the assay with Staphylococcus aureus [1], the MBEC result was “Active”. The MBC against Escherichia coli [2] and with Staphylococcus aureus [3] was 5 µM (≈ 10.8 µg/mL) throughout. In addition, the MBEC result with Staphylococcus aureus [4] is “inactive”.
As for `CC[C@@H](C)[C@H]1NC(=O)[C@H]2CCCN2C(=O)[C@H](NC(=O)[C@@H](C)N)CSSC[C@H](C(=O)O)NC(=O)[C@@H]([C@H](C)CC)NC(=O)[C@@H](CCCNC(=N)N)NC(=O)[C@@H](CCCNC(=N)N)NC(=O)CNC(=O)[C@@H]([C@H](C)CC)NC(=O)[C@@H](CCCNC(=N)N)NC(=O)[C@@H](CCCCN)NC(=O)[C@@H](C)NC(=O)[C@@H](CCCCN)NC(=O)CNC(=O)[C@@H](CCCNC(=N)N)NC(=O)[C@@H](Cc2ccc(O)cc2)NC(=O)[C@@H]([C@H](C)O)NC(=O)CNC(=O)[C@@H](CCC(N)=O)NC(=O)[C@@H]([C@H](C)CC)NC(=O)[C@@H](CCCCN)NC(=O)[C@@H]([C@H](C)O)NC(=O)[C@@H](Cc2ccccc2)NC1=O`, the result in the assay with Escherichia coli [5] and in the assay with Staphylococcus aureus [6] was Active. The MBEC in the assay on Escherichia coli [7] and in the assay with Staphylococcus aureus [4] was 200 µM in each case. In addition, the MBC (commonly the smallest concentration meeting the test's criterion for killing) with Escherichia coli [2] is 1 µM (≈ 2.74 µg/mL); against Staphylococcus aureus [3], 2 µM (≈ 5.47 µg/mL).
On to `CC[C@H](C)[C@@H]1NC(=O)[C@H](CCCCN)NC(=O)[C@H]([C@@H](C)O)NC(=O)[C@H](Cc2ccccc2)NC(=O)[C@H]([C@@H](C)CC)NC(=O)[C@@H]2CCCN2C(=O)[C@@H](NC(=O)[C@H](C)N)CSSC[C@@H](C(=O)O)NC(=O)[C@H]([C@@H](C)CC)NC(=O)[C@@H](CCCNC(=N)N)NC(=O)[C@H](CCCNC(=N)N)NC(=O)CNC(=O)[C@@H]([C@@H](C)CC)NC(=O)[C@H](CCCNC(=N)N)NC(=O)[C@H](CCCCN)NC(=O)[C@H](C)NC(=O)[C@H](CCCCN)NC(=O)CNC(=O)[C@H](CCCNC(=N)N)NC(=O)[C@H](Cc2ccc(O)cc2)NC(=O)[C@H]([C@@H](C)O)NC(=O)CNC(=O)[C@H](CCC(N)=O)NC1=O`, for which the result in the assay with Escherichia coli [5] and in the assay with Staphylococcus aureus [6] was Active. The MBC is 1 µM (≈ 2.74 µg/mL) against Escherichia coli [2] and 2 µM (≈ 5.47 µg/mL) in the assay on Staphylococcus aureus [3]. The MBEC with Staphylococcus aureus [4] stood at 150 µM.
